Results reported in ChEMBL document CHEMBL1201862, “PubChem BioAssay data set” (2004).
The source made the active and inactive calls.

Assays:
[1] = molecular target: T1, Voltage-gated N-type calcium channel alpha-1B subunit/Amyloid beta A4 precursor protein-binding family A member 1 (Homo sapiens, UniProt Q00975+Q02410); assay type: protein assay
[2] = molecular target: T1, Voltage-gated N-type calcium channel alpha-1B subunit/Amyloid beta A4 precursor protein-binding family A member 1; assay type: protein assay; remark: listed apart in the source
cells = assay type: functional
Cytochrome P450 2C9 = Cytochrome P450 2C9 (Homo sapiens, UniProt P11712)
Sequence of Cytochrome P450 2C9 (P11712 whole entry): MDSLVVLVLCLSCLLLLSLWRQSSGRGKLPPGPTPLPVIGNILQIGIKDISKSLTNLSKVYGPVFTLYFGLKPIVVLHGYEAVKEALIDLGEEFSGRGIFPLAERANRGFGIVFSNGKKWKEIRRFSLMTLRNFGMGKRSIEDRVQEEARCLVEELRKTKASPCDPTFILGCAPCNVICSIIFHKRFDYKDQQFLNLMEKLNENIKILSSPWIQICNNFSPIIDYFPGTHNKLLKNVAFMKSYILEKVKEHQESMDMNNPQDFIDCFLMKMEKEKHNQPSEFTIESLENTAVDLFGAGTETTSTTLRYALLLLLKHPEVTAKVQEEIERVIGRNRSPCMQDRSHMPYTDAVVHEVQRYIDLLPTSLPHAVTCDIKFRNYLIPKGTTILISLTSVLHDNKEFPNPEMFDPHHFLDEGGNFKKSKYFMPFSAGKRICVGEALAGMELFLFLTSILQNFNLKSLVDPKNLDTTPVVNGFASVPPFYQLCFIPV

[3] = HEK-293T viability loss after treatment – luminescence, T-cell screen hits, cytotoxicity control for TCR NF-kB inhibitor project, dose response (AID 489026); assay type: functional, cell-based;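 also: cells exposed to compound about 14 hours before the viability readout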
[4] = non-specific 3'UTR reporter inhibition in Clone20-Shn3RL – cell-based, Renilla luciferase, cherry-picked, counter-screen for Shn3 inhibitor project, dose response (AID 624133); assay type: functional
[5] = loss of viability in HepG2 cells – cell-based, CellTiter-Glo, cherry-picked, cytotoxicity control for Shn3 inhibitor project, dose response (AID 624134); assay type: functional
[6] = reduction of Shn3 3'UTR-driven luciferase in osteoblasts – cell-based, Clone20 osteoblasts, firefly luciferase, cherry-picked, dose response (AID 624132); assay type: functional;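 also: firefly luciferase luminescence from reporter carrying the Shn3 3'UTR in osteoblasts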
INS1 = experiment: INS-1E survival protection against cytokine death – cell-based, luminescence, retest, dose response (AID 449756); assay type: functional; details: Rattus norvegicus;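 also: cell death triggered by IL-1 beta plus TNF-alpha plus IFN-gamma mixture; protective hits raise ATP signal compared with cytokine alone wells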
[7] = P. falciparum Dd2 growth inhibitors, dose response, SYBR Green, cherry-picked samples (AID 1159567); assay type: functional, cell-based
[8] = molecular target: T2, Short transient receptor potential channel 4 (Mus musculus, UniProt Q9QUQ5); experiment: block of DAMGO-driven TRPC4 calcium entry – cell-based, HEK293 TRPC4/mu-opioid, Fluo-4 calcium, dose response (AID 434942); assay type: functional;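 also: potency of inhibitors blocking the TRPC4 calcium response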
T2 sequence (Q9QUQ5 whole entry): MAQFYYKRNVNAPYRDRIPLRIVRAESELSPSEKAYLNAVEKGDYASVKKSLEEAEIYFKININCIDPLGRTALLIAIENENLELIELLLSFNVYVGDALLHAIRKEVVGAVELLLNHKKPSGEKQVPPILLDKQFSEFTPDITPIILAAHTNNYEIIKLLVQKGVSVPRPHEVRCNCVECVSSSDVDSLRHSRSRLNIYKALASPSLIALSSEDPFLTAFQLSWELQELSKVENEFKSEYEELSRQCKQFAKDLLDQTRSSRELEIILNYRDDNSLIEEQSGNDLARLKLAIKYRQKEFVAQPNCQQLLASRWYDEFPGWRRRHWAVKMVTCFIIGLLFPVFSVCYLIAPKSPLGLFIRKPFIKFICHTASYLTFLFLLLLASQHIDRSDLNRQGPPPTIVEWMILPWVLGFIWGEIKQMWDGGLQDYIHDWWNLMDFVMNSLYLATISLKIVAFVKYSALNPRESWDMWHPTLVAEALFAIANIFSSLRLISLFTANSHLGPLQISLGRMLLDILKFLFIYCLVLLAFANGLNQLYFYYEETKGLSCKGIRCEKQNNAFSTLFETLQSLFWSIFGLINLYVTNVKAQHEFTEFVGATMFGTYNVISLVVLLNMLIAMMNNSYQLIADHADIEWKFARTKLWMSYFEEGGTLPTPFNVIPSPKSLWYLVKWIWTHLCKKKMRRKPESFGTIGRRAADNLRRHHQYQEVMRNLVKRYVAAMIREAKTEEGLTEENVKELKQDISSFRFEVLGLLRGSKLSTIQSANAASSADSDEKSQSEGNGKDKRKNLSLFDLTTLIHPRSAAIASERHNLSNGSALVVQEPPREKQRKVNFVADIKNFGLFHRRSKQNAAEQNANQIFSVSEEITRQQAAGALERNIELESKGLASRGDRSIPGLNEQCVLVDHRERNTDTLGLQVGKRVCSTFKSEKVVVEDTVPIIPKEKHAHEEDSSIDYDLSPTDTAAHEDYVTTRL

fMet-Leu-Phe receptor = molecular target: T3, fMet-Leu-Phe receptor (Homo sapiens, UniProt P21462); experiment: formyl peptide receptor binders – dose response (AID 519); assay type: functional
T3 sequence (P21462 whole entry): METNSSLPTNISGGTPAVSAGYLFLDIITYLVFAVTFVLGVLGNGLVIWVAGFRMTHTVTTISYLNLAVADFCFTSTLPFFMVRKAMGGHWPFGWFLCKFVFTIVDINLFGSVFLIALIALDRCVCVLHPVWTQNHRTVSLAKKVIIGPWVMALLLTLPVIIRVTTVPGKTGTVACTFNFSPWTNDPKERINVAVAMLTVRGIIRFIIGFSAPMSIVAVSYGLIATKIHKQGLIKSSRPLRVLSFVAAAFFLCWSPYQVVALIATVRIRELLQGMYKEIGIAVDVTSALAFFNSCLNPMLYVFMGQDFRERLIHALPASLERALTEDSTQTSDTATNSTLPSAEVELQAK

[9] = DRD fibroblast viability loss – cell-based, non-viral oncogenic, luminescence, dose response (AID 1934); assay type: functional; details: Homo sapiens
BJ [10] = experiment: BJ-TERT fibroblast viability loss – cell-based, RAS-independent, luminescence, dose response (AID 1933); assay type: functional; details: Homo sapiens
[11] = Luminescence Cell-Based Dose Response HTS to Identify Inhibitors of 5'UTR Stem-Loop Driven Prion Protein mRNA Translation in H4 Neuroglioblastoma Cells. [Related pubchem assays: 1827 (Project Summary), 1813 (Primary HTS)]; assay type: functional
[12] = luciferase reporter signal suppression in cells – H4 neuroglioma cells, luminescence, dose response (AID 1990); assay type: functional, cell-based
BJ [13] = experiment: BJ-TERT-LT-ST fibroblast viability loss – cell-based, RAS-independent, luminescence, dose response (AID 1935); assay type: functional; details: Homo sapiens;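 also: BJ fibroblasts immortalized with TERT plus LT and ST oncogenes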
BJ [14] = experiment: cells; assay type: functional, cell-based; details: Homo sapiens
[15] = alpha-synuclein stem-loop luciferase translation blockers – H4 neuroglioma cells, luminescence, confirmation (AID 1988); assay type: functional, cell-based

T1 sequence (Q00975 whole entry): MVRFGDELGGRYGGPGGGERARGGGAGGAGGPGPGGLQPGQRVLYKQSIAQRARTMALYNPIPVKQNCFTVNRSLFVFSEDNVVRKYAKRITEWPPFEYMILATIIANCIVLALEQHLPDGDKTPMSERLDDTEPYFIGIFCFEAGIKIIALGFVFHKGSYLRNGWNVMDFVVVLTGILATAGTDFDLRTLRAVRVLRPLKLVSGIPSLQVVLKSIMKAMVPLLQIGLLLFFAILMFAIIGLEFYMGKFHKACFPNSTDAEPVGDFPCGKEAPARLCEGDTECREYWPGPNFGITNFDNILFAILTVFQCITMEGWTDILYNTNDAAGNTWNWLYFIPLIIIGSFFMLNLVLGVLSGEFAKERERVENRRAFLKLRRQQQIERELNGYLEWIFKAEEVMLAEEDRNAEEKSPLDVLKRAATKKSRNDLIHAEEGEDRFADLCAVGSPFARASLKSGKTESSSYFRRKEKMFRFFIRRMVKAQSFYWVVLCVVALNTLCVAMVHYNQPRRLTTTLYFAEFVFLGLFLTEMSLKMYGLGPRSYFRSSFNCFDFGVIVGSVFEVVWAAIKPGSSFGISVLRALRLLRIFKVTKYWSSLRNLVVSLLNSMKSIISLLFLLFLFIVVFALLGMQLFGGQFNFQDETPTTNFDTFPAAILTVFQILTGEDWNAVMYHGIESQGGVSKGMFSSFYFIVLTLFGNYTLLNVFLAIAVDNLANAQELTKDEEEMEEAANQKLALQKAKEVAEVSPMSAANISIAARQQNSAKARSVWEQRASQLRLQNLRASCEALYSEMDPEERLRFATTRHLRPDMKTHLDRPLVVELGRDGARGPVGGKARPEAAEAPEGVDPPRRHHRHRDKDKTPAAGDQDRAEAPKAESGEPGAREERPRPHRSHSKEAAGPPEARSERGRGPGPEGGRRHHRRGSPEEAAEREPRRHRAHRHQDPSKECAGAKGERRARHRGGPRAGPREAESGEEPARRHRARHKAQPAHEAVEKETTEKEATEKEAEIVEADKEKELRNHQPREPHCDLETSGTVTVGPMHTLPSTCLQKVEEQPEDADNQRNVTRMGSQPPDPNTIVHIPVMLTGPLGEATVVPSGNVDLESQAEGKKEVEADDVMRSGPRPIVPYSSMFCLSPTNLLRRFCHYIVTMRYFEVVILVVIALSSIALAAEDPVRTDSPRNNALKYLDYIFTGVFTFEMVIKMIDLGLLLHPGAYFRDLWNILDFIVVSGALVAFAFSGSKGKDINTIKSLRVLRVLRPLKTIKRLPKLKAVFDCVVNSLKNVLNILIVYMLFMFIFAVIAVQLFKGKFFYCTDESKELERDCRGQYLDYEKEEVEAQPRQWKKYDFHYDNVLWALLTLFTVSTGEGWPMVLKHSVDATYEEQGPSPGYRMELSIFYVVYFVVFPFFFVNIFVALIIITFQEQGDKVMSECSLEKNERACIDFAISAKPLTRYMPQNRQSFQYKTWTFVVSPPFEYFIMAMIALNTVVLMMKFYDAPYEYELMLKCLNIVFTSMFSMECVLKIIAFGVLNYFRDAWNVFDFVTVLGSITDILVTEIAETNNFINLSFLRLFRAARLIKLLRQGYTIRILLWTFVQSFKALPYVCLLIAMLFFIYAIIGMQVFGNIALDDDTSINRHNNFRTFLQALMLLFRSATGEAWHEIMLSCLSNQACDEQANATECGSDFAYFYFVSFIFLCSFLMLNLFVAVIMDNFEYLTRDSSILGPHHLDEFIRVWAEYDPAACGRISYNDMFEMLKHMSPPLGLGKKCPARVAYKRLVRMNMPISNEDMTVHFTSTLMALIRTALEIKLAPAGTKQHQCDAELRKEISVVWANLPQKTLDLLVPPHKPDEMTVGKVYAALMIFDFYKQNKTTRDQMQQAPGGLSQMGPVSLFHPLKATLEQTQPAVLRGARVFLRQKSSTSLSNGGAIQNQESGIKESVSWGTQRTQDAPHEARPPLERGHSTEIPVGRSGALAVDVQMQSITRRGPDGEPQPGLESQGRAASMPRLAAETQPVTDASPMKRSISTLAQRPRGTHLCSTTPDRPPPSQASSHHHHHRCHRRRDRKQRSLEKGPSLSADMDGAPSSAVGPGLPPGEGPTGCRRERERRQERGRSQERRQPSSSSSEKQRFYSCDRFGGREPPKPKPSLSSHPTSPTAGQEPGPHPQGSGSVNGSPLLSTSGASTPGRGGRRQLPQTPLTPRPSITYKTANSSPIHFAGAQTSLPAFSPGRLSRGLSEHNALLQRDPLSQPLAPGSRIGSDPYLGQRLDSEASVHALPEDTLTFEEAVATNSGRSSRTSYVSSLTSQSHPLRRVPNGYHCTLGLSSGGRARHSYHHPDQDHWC
T1 sequence (Q02410 whole entry): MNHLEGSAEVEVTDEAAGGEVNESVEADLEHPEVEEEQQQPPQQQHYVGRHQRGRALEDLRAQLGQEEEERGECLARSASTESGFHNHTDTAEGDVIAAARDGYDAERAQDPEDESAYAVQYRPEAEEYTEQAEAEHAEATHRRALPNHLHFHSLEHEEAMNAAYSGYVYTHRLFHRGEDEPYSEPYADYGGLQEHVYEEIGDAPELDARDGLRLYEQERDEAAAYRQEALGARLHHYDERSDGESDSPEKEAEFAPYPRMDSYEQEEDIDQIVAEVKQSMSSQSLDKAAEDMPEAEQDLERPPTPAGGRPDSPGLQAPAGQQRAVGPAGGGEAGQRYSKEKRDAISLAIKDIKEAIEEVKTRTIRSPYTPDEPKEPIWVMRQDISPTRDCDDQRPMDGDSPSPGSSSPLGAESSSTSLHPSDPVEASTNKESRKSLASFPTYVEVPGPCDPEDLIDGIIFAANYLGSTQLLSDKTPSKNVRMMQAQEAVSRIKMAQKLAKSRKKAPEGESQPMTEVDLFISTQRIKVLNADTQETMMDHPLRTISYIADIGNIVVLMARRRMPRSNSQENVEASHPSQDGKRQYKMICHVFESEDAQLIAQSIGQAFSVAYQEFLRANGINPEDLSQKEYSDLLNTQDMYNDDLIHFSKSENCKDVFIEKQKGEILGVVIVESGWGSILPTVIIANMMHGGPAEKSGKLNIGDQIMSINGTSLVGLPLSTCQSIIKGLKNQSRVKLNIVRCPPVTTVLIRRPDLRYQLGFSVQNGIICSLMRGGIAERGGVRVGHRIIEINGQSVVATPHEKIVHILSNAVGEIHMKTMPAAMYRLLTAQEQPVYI

## N#CC1=C(N)N=C(S)C(C(N)=O)C1c1ccc(Cl)cc1Cl (configuration not stated)
[1]
  IC50: 13.3 µM (active)
[2]
  IC50: > 50 µM (inactive)

## CC(C)c1ccc(OCC(=O)NNC(=O)c2cnccn2)cc1
cells
  IC50: 11.9 µM (active)

## Cc1nn(C)cc1CNC(=O)CCC(=O)O
Cytochrome P450 2C9
  AC50: inconclusive

## CCN(CC)S(=O)(=O)c1cc(NC(=O)CNc2cccc(S(=O)(=O)N3CCCC3)c2)ccc1C
[3]
  IC50: > 80 µM (inactive)
[4]
  AC50: > 70 µM (inactive)
[5]
  AC50: 1.2 µM (active)
[6]
  AC50: 0.648 µM (active)
INS1
  AC50: 5.23 µM (active)

## C/C=C/c1ccc2c(c1)[C@@H]1[C@@H](CCN1S(=O)(=O)c1ccccc1C)[C@H](CO)N2
[7]
  AC50: 7.49 µM (active)

## COc1ccc(C)cc1NC1=NC(C)(C)CS1
[8]
  EC50: 7.5 µM (active)

## CN1CCN(CCCNC(=O)Nc2cccc3ccccc23)CC1
fMet-Leu-Phe receptor
  Ki: > 66.7 µM (inactive)

## O=C(c1ccc(Cl)cc1)N(Cc1cccs1)C1CCS(=O)(=O)C1 (configuration not stated)
fMet-Leu-Phe receptor
  Ki: > 66.7 µM (inactive)

## O=C(N/N=C/c1ccncc1)c1ccc(NC(=O)c2ccc(Cl)cc2)cc1
[1]
  IC50: > 56.8 µM (not active)
[2]
  IC50: > 50 µM (inactive)

## COCC(=O)N1CC2(C1)CN(Cc1ccccc1F)[C@H](CO)c1[nH]c3cc(OC)ccc3c12
[7]
  AC50: 11.5 µM (active)

## CCOc1ccccc1NC(=O)Cn1nnc(C(=O)NCc2ccco2)c1N
[9]
  EC50: 2.65 µM (active)
BJ [10]
  EC50: 2.66 µM (inconclusive)
[3]
  IC50: > 80 µM (inactive)
[11]
  EC50: 0.134 µM (active)
[12]
  EC50: 0.216 µM (active)
BJ [13]
  EC50: 1.81 µM (inconclusive)
BJ [14]
  EC50: 3.17 µM (active)
[15]
  EC50: 0.109 µM (active)

## COc1ccc(NC(=O)C2C3CCC(C3)C2C(=O)O)cc1OC (configuration not stated)
fMet-Leu-Phe receptor
  Ki: > 66.7 µM (inactive)

## CCOC(=O)c1oc2cc(O)ccc2c(=O)c1-c1ccccc1OC
fMet-Leu-Phe receptor
  Ki: > 66.7 µM (inactive)

## O=C(N/N=C/C=C/c1ccccc1)c1ccncc1
cells
  IC50: 0.48 µM (active)
